Holding throughout (test): ≥ marks a high value that may be exact or a test limit, other limits are often not marked, values filed in µg/mL are converted to µM
The subject of experiment [1] is Escherichia coli D21.
Experiment [2] has as its system Acinetobacter baumannii ATCC 19606.
The test system of experiment [3] is Staphylococcus epidermidis LT1324.
For experiment [4], the system named is Escherichia coli ATCC 25922.
Experiment [5] has as its system Staphylococcus simulans.
Experiment [6] has as its system Micrococcus luteus.
The test system of experiment [7] is Pseudomonas aeruginosa ATCC 27853.
Experiment [8] deals with Staphylococcus aureus II ATCC 6538P.

≈ marks a conversion by molar mass, not a printed value.

We go through 1 compound from DBAASP.

Turning to `CC(C)C[C@H](NC(=O)[C@H](CC(C)C)NC(=O)[C@H](CCCCN)NC(=O)[C@H](CC(C)C)NC(=O)[C@H](CC(C)C)NC(=O)[C@H](CCCCN)NC(=O)[C@H](CC(C)C)NC(=O)[C@H](CC(C)C)NC(=O)[C@H](CCCCN)NC(=O)[C@H](CC(C)C)NC(=O)[C@H](CC(C)C)NC(=O)[C@H](CCCCN)NC(=O)[C@H](CC(C)C)NC(=O)[C@@H](N)CCCCN)C(=O)N[C@@H](CCCCN)C(N)=O` [KLKLLKLLKLLKLLK], the MIC (in general, the least concentration at which growth counts as inhibited) came out at 3 µM (≈ 5.41 µg/mL) in experiment [1]; 2 µM (≈ 3.61 µg/mL) in experiment [2]; 1.5 µM (≈ 2.71 µg/mL) in experiment [3]; 3 µM (≈ 5.41 µg/mL) in experiment [4]; 1.5 µM (≈ 2.71 µg/mL) in experiment [5]; 2 µM (≈ 3.61 µg/mL) in experiment [6]. Further, the minimum inhibitory concentration (MIC) in experiment [7] and in experiment [8] was 6 µM (≈ 10.8 µg/mL) throughout.
